Experimental data reported in ChEMBL document CHEMBL4406908, “Identification of neomacrophorins isolated from Trichoderma sp. 1212-03 as proteasome inhibitors” (Bioorg Med Chem, 2019).
The source made the active and inactive calls. The calls are words filed in the database; no cut-off is given here.

Columns and labels:
HL-60 [1] = test: Induction of apoptosis in human HL60 cells assessed as caspase 3 cleavage at 5 uM incubated for 4 hrs in presence of 5 mM nucleophile, NAC by Western blot analysis; format: functional, cell-based
HL-60 [2] = test: Inhibition of proteasome in human HL60 cells assessed as increase in accumulation of ubiquitinated proteins at 1.25 to 5 uM incubated for 4 hrs by Western blot analysis; format: functional, cell-based
[3] = Binding affinity to NAC methyl ester in PBS-MeOH (7:3) solution at 1 mM by ESI/LC-MS analysis
HL-60 [4] = test: Induction of apoptosis in human HL60 cells assessed as DNA fragmentation at 5 uM preincubated with 50 uM pan caspase inhibitor, z-VAD-FMK for 1 hr followed by incubation with compound for 4 hrs by ethidium bromide staining based agarose gel electrophoresis method; format: functional, cell-based
[5] = Binding affinity to NAC methyl ester in PBS-MeOH (7:3) solution assessed as methyl 4-[[(1R,6S)-6-[[(1S,4aR,6R,8aR)-6-hydroxy-5,5,8a-trimethyl-2-methylene-decalin-1-yl]methyl]-3-[(2-acetamido-3-methoxy-3-oxo-propyl)sulfanylmethyl]-2,5-dioxo-7-oxabicyclo[4.1.0]heptan-4-yl]sulfanyl]-3-acetamido-butanoate formation at 1 mM by HPLC analysis
HL-60 [6] = test: Antiproliferative activity against human HL60 cells assessed as cell viability at 5 to 10 uM incubated for 48 hrs in presence of 5 mM nucleophile, NAC by trypan blue dye exclusion assay; format: functional, cell-based
HL-60 [7] = test: Induction of apoptosis in human HL60 cells assessed as increase in DNA fragmentation incubated for 4 hrs by ethidium bromide staining based agarose gel electrophoresis method; format: functional, cell-based
[8] = target: T1, Proteasome Macropain subunit MB1 (Homo sapiens) (UniProt P28074); test: (§1) Inhibition of chymotrypsin-like activity of beta5 subunit of 20S proteasome in human erythrocytes using Suc-LLVY-MCA as substrate preincubated with enzyme for 10 mins followed by substrate addition and measured after 3 hrs by fluorescence spectrophotometric analysis
T1 sequence (whole entry): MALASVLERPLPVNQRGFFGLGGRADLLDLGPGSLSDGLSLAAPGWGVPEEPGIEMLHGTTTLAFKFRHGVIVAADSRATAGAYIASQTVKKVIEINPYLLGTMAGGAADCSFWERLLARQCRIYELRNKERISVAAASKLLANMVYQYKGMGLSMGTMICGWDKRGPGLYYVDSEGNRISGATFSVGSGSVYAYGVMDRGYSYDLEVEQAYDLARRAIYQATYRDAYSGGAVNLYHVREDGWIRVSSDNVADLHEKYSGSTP

[9] = target: T2, Proteasome Macropain subunit MB1 (Homo sapiens, UniProt P28074); test: as §1
T2 sequence (P28074 whole entry): T1 sequence (whole entry)

[10] = Binding affinity to NAC methyl ester assessed as methyl 3-[[(1R,6S)-6-[[(1S,4aR,6R,8aR)-6-hydroxy-5,5,8a-trimethyl-2-methylene-decalin-1-yl]methyl]-2,5-dioxo-7-oxabicyclo[4.1.0]hept-3-en-3-yl]methylsulfanyl]-2-acetamido-propanoate formation by UV spectra analysis
[11] = target: Proteasome Macropain subunit (Homo sapiens) (UniProt P49721); test: Inhibition of trypsin-like activity of beta2 subunit of 20S proteasome in human erythrocytes using Boc-LRR-MCA as substrate preincubated with enzyme for 10 mins followed by substrate addition and measured after 3 hrs by fluorescence spectrophotometric analysis; format: cell-based
Proteasome Macropain subunit (Homo sapiens), sequence (P49721 whole entry): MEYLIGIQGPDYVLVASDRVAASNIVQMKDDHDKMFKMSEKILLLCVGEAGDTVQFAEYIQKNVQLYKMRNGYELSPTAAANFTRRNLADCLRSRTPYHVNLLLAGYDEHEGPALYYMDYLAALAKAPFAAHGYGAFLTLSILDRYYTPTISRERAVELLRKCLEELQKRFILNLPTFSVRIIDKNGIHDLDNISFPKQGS

HL-60 [12] = test: Induction of apoptosis in human HL60 cells assessed as ROS generation; format: functional, cell-based
[13] = Binding affinity to NAC methyl ester in PBS-MeOH (7:3) solution assessed as disappearance of peak regarding parent compound at 1 mM measured within 1 min by HPLC analysis
HL-60 [14] = test: Induction of apoptosis in human HL60 cells assessed as increase in cleavage of caspase 3 incubated for 4 hrs by Western blot analysis; format: functional, cell-based
Proteasome = test: Inhibition of proteasome in human HL60 cells assessed as accumulation of ubiquitinated proteins at 5 uM incubated for 4 hrs in presence of 5 mM nucleophile, NAC by Western blot analysis; format: subcellular
[15] = target: T3, Proteasome component C5 (Homo sapiens) (UniProt P20618); test: Inhibition of caspase-like activity of beta1 subunit of 20S proteasome in human erythrocytes using Z-LLE-MCA as substrate preincubated with enzyme for 10 mins followed by substrate addition and measured after 3 hrs by fluorescence spectrophotometeric analysis
T3 sequence (whole entry): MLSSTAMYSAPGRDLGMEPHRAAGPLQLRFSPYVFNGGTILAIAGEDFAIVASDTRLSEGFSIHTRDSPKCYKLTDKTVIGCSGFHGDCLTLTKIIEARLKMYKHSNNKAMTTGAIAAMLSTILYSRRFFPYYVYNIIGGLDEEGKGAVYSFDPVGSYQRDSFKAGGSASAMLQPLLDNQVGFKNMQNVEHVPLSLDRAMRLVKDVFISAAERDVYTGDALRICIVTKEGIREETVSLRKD

COLO 201 = test: Cytotoxicity against human COLO201 cells; format: functional, cell-based
HL-60 [16] = test: Antiproliferative activity against human HL60 cells assessed as cell growth inhibition incubated for 2 days by MTT assay; format: functional, cell-based; settings: HL-60, 48 h
[17] = Binding affinity to NAC methyl ester in PBS-MeOH (7:3) solution assessed as methyl 3-[[(1R,6S)-6-[[(1S,4aR,6R,8aR)-6-hydroxy-5,5,8a-trimethyl-2-methylene-decalin-1-yl]methyl]-2,5-dioxo-7-oxabicyclo[4.1.0]hept-3-en-3-yl]methylsulfanyl]-2-acetamido-propanoate formation at 1 mM by HPLC analysis
HL-60 [18] = test: Induction of apoptosis in human HL60 cells assessed as DNA fragmentation at 50 uM preincubated with 50 uM pan caspase inhibitor, z-VAD-FMK for 1 hr followed by incubation with compound for 4 hrs by ethidium bromide staining based agarose gel electrophoresis method; format: functional, cell-based
HL-60 [19] = test: Inhibition of proteasome in human HL60 cells assessed as increase in accumulation of ubiquitinated proteins at 12.5 to 50 uM incubated for 4 hrs by Western blot analysis; format: functional, cell-based
[20] = target: T1, Proteasome Macropain subunit MB1 (Homo sapiens); test: Inhibition of chymotrypsin-like activity of beta5 subunit of 20S proteasome in human erythrocytes at 100 uM using Suc-LLVY-MCA as substrate preincubated with enzyme for 10 mins followed by substrate addition and measured after 3 hrs by fluorescence spectrophotometeric analysis
[21] = target: Proteasome Macropain subunit (Homo sapiens) (UniProt P49721); test: Inhibition of trypsin-like activity of beta2 subunit of 20S proteasome in human erythrocytes at 100 uM using Boc-LRR-MCA as substrate preincubated with enzyme for 10 mins followed by substrate addition and measured after 3 hrs by fluorescence spectrophotometric analysis
[22] = target: T3, Proteasome component C5 (Homo sapiens); test: Inhibition of caspase-like activity of beta1 subunit of 20S proteasome in human erythrocytes at 100 uM using Z-LLE-MCA as substrate preincubated with enzyme for 10 mins followed by substrate addition and measured after 3 hrs by fluorescence spectrophotometeric analysis
HL-60 [23] = test: Inhibition of proteasome in human HL60 cells assessed as accumulation of ubiquitinated proteins at 100 uM incubated for 4 hrs by Western blot analysis; format: functional, cell-based
HL-60 [24] = test: Induction of apoptosis in human HL60 cells assessed as DNA fragmentation at 100 uM preincubated with 50 uM pan caspase inhibitor, z-VAD-FMK for 1 hr followed by incubation with compound for 4 hrs by ethidium bromide staining based agarose gel electrophoresis method; format: functional, cell-based
[25] = Binding affinity to NAC methyl ester in PBS-MeOH (7:3) solution at 1 mM by HPLC analysis
[26] = Binding affinity to NAC methyl ester in PBS-MeOH (7:3) solution assessed as methyl 3-[[(1R,6S)-6-[[(1S,4aR,6R,8aR)-6-hydroxy-5,5,8a-trimethyl-2-methylene-decalin-1-yl]methyl]-3-(hydroxymethyl)-2,5-dioxo-7-oxabicyclo[4.1.0]heptan-4-yl]sulfanyl]-2-acetamido-propanoate formation at 1 mM by HPLC analysis
HL-60 [27] = test: Antiproliferative activity against human HL60 cells assessed as cell viability at 0.5 to 1 uM incubated for 48 hrs in presence of 5 mM nucleophile, NAC by trypan blue dye exclusion assay; format: functional, cell-based

Row | Structure (SMILES) | Activity [3] | Activity [5] | inhibition [8] | IC50 [9] | Activity [10] | inhibition [11] | inhibition (Proteasome) | inhibition [15] | IC50 (HL-60 [16]) | Activity [17] | Activity (HL-60 [1]) | inhibition (HL-60 [2]) | Activity (HL-60 [4]) | Activity (HL-60 [6]) | Activity (HL-60 [7]) | Activity (HL-60 [12]) | Activity (HL-60 [14]) | Activity (HL-60 [18]) | inhibition (HL-60 [19]) | further results
1 | C=C1CC[C@H]2C(C)(C)[C@H](O)CC[C@]2(C)[C@H]1C[C@]12O[C@H]1[C@H](O)C(COC(=O)C[C@H](C)O)=CC2=O |  |  | Dose-dependent effect | 31.9 µM |  | Dose-dependent effect |  | Dose-dependent effect | 15 µM |  |  |  |  |  | Dose-dependent effect | inactive | Dose-dependent effect | inactive | Active | 
2 | C=C1CC[C@H]2C(C)(C)[C@H](O)CC[C@]2(C)[C@H]1C[C@]12O[C@H]1[C@H](O)C(CO)=CC2=O |  |  |  | > 100 µM |  |  |  |  | 25.3 µM |  |  |  |  |  | Dose-dependent effect | inactive | Dose-dependent effect |  |  | inhibition [20]: inactive; inhibition [21]: inactive; inhibition [22]: inactive; inhibition (HL-60 [23]): inactive; Activity (HL-60 [24]): inactive; Activity [25]: inactive
3 | C=C1CC[C@H]2C(C)(C)[C@H](O)CC[C@]2(C)[C@H]1C[C@]12O[C@H]1[C@H](O)C(COC(=O)[C@H](O)[C@H](C)O)=CC2=O |  |  | Dose-dependent effect | 93.6 µM |  | Dose-dependent effect |  | Dose-dependent effect | 21.6 µM |  |  |  |  |  | Dose-dependent effect | inactive | Dose-dependent effect | inactive | Active | 

These reach a lower IC50 [9]. Values come first.

Row | Activity [3] | Activity [5] | inhibition [8] | IC50 [9] | Activity [10] | inhibition [11] | inhibition (Proteasome) | inhibition [15] | IC50 (HL-60 [16]) | Activity [17] | Structure (SMILES) | Activity (HL-60 [1]) | inhibition (HL-60 [2]) | Activity (HL-60 [4]) | Activity (HL-60 [6]) | Activity (HL-60 [7]) | Activity (HL-60 [12]) | Activity (HL-60 [14]) | Activity (HL-60 [18]) | inhibition (HL-60 [19]) | further results
4 | Active | Active | Dose-dependent effect | 5.7 µM | Active | Dose-dependent effect | inactive | Dose-dependent effect | 2.6 µM | Active | C=C1CC[C@H]2C(C)(C)[C@H](O)CC[C@]2(C)[C@H]1C[C@]12O[C@H]1C(=O)C(COC(=O)[C@H](O)[C@H](C)O)=CC2=O | inactive | Active | inactive | inactive | Dose-dependent effect | inactive | Dose-dependent effect |  |  | Activity [13]: Active; IC50 (COLO 201): 96.6 µM
5 | Active | Active | Dose-dependent effect | 5.3 µM | Active | Dose-dependent effect | inactive | Dose-dependent effect | 1.3 µM | Active | C=C1CC[C@H]2C(C)(C)[C@H](O)CC[C@]2(C)[C@H]1C[C@]12O[C@H]1C(=O)C(COC(=O)C[C@H](C)O)=CC2=O | inactive | Active | inactive | inactive | Dose-dependent effect | inactive | Dose-dependent effect |  |  | 
6 | Active |  | Dose-dependent effect | 26.3 µM |  | Dose-dependent effect | inactive | Dose-dependent effect | 0.3 µM |  | C=C1CC[C@H]2C(C)(C)[C@H](O)CC[C@]2(C)[C@H]1C[C@]12O[C@H]1C(=O)C(CO)=CC2=O | inactive | Active | inactive |  | Dose-dependent effect | inactive | Dose-dependent effect |  |  | Activity [26]: Active; inhibition (HL-60 [27]): inactive
